Tests used:
breast carcinoma = settings: cited from earlier work; for percent of the rats developed cancer in 7 months / percent of the rats developed cancer in one year: rats treated with drug and a carcinogen; for percent of the rats developed cancer in 7 months: incidence at 7 months; for percent of the rats developed cancer in one year: incidence at one year; for lifetime effect in reducing the appearance of breast carcinoma: treated rats compared to other rats receiving carcinogen at the same time
[1] = in animals; cited from earlier work
mammary carcinoma = assay: Anti-mammary carcinogenic activity in female rats fed DMBA, hormone given by pellet or minipump; assay type: in vivo, Sprague-Dawley rats; settings: doses that do not have undesirable side effects
Procedure: In tests for anti-mammary carcinogenic activity following the feeding of carcinogen to mammals, ten different estrogenic compounds were implanted in female rats fed a carcinogen. The incidence of breast cancer for each compound was determined. Rats receiving only the carcinogen were used as controls. Ethynyl estriol was obtained from Eli Lilly, Inc., Greenfield, Indiana; the other estrogens were obtained from Sigma, Inc., St. Louis, Missouri, or Steraloids, Inc., Wilton, New Hampshire.
In all of the tests, intact female Sprague-Dawley rats, obtained from Sasco, Inc., Omaha, Nebraska, at 50 to 55 days of age were used.
They were: (1) randomized upon receipt; (2) housed individually in suspended cages; (3) fed Purina Lab Chow and distilled water; and (4) the temperature was maintained within 22-23 degrees and 40-50 percent relative humidity. […]
Rats free of neoplasms were followed for one year. […] Significant differences in cancer incidence between treated and controlled groups were determined.
The differences in cancer incidence between treated and controlled groups in each experiment were determined by X2 using the Yate's correction. […] The significance of difference in mammary-carcinoma-free survival in rate-days was determined for these groups at 210 days after DMBA administration using the Mann-Whitney U Test. […]

[2] = in vitro by tissues; cited from earlier work
[3] = test system: breast cancers induced by a carcinogenic chemical; settings: cited from earlier work

SMILES	percent of the rats developed cancer in 7 months (breast carcinoma) [%]	percent of the rats developed cancer in one year (breast carcinoma) [%]	further results
C[C@]12CC[C@@H]3c4cc(O)c(O)cc4CC[C@H]3[C@@H]1CC[C@@H]2O [2-OH estradiol 17 beta]	78	94	
C[C@]12CC[C@@H]3c4ccc(O)cc4C(=O)C[C@H]3[C@@H]1CC[C@@H]2O [6 keto estradiol, 6-keto estradiol 17 beta]	31	61	lifetime effect in reducing the appearance of breast carcinoma (breast carcinoma): 30-50%
C#C[C@]1(O)CC[C@H]2[C@@H]3CCc4cc(O)ccc4[C@H]3[C@@H](OC)C[C@@]21C [11 beta methoxy 17 alpha ethynyl estradiol 17 beta]			carcinogenicity [1]: carcinogenic in animals
C#C[C@]1(O)CC[C@H]2[C@@H]3CCc4cc(O)ccc4[C@H]3CC[C@@]21C [17 alpha ethynyl estradiol 17 beta]	90	100	
C#C[C@]1(O)[C@H](O)C[C@H]2[C@@H]3CCc4cc(O)ccc4[C@H]3CC[C@@]21C [17 alpha ethynyl estriol]			risk of mammary carcinoma (mammary carcinoma): reduce the risk of mammary carcinoma
C[C@]12CCc3c(ccc4cc(O)ccc34)[C@@H]1CCC2=O [d-equilenin]			position of oxidation [2]: almost exclusively at the C4 (R1) position
CC/C(=C(/CC)c1ccc(O)cc1)c1ccc(O)cc1 [diethylstilbestrol]	88	100	
COc1ccc2c(c1)CC[C@@H]1[C@@H]2CC[C@]2(C)[C@@H](O)[C@H](O)C[C@@H]12 [estriol 3-methyl ether]			lifetime effect in reducing the appearance of breast carcinoma (breast carcinoma): 30-50%
C[C@]12CC[C@@H]3c4ccc(O)cc4CC[C@H]3[C@@H]1C[C@@H](O)[C@@H]2O [estriol]	26	63	inhibiting the development of breast cancers [3]: moderately effective
CC/C(=C(\c1ccccc1)c1ccc(OCCN(C)C)cc1)c1ccccc1 [tamoxifen]	78	89	
